Test results taken from patent US8598173B2, “1-[(6,7-substituted alkoxyquinoxalinyl)aminocarbonyl]-4-(hetero)arylpiperazine derivatives for treating tumors” (Korea Research Institute of Chemical Technology, priority 2004, dated 2013).
Like-named read-outs stand apart in the source and are kept apart here.

Experiments:
[1] = tested on: Huvec (human umbilical vein endothelial cells); assay: Cell growth inhibition assay (SRB), Huvec; assay type: cell-based; details: SRB method, 96 hours incubation
Experimental: (§1) OVCAR-3, MCF-7, PC3, HepG2, A549, HT-29 and MKN-45 were grown in RPMI1640 medium (Invitrogen, Carlsbad, Calif.) supplemented with 10% fetal bovine serum (‘FBS’), 1 mM sodium pyruvate, 10 mM HEPES and 100 U/ml penicillin and […] streptomycin (‘P/S’). MDA-MB-231, HCT116, UMRC2, Caki-1, PANC-1 and HEK293 cells were maintained in Dulbecco's modified Eagle's medium (‘DMEM’, Invitrogen) supplemented with 10% FBS, P/S, 10 mM HEPES and 2 mM L-glutamine. HUVEC was maintained in M199 supplemented with basic fibroblast growth factor (‘bFGF’) […] and FBS 20%. All cells were incubated at 37° C. under humidified 5% CO2.
(§2) The growth inhibition of the substituted quinoxalin-piperazine compounds against a variety of human tumor cells was evaluated. The relative importance of particular substituent groups on the compounds was also studied. The substituted piperazine derivative compounds, prepared as described above, were tested, along with DMSO as a control.
(§3) The growth inhibition assay of various compounds against human tumor cell lines was performed using the Sulforhodamine B (‘SRB’) method (Skehan et al., J. National Cancer Institute, 1990, 82, 1107-1112). […] Triplicate wells were used for each treatment. The cells were incubated with the various compounds for 96 hours at 37° C. in a humidified 5% CO2 atmosphere. After 96-hour incubation, cells were fixed with 10% trichloroacetic acid (‘TCA’), incubated for 1 hour at 4° C., and washed 3 times with tap water. Subsequently cells were stained with 0.4% sulforhodamine B in 1% acetic acid for 30 minutes, washed 4 times with 1% acetic acid, and air-dried again. After 5 minutes agitation in 10 mM Tris solution, the absorbance of each well was measured at 530 nm using Benchmark Plus Microplate reader (Bio-Rad Laboratories, Hercules, Calif.).
(§4) To translate the OD530 values into the number of live cells in each well, the OD530 values were compared to those on standard OD530-versus-cell number curves generated for each cell line. The percent survival was calculated using the formula: % Survival=live cell number[test]/live cell number[control]×100
(§5) The IC50 values were calculated by non-linear regression analysis.

HT-29 (colon) = assay: Cell growth inhibition assay (SRB), HT-29; assay type: cell-based; details: Homo sapiens, SRB method, 96 hours incubation
Experimental: as §1, §2, §3, §4, §5

PANC-1 (pancreas) = assay: Cell growth inhibition assay (SRB), PANC-1; assay type: cell-based, human; details: Homo sapiens, SRB method, 96 hours incubation
Experimental: as §1, §2, §3, §4, §5

MDA-MB-231 (breast) = assay: Cell growth inhibition assay (SRB), MDA-MB-231; assay type: cell-based, human; details: Homo sapiens, SRB method, 96 hours incubation
Experimental: as §1, §2, §3, §4, §5

[2] = tested on: HEK293 (human embryonic kidney); assay: Cell growth inhibition assay (SRB), HEK293; assay type: cell-based; details: SRB method, 96 hours incubation
Experimental: as §1, §2, §3, §4, §5

A549 (lung) = assay: Cell growth inhibition assay (SRB), A549; assay type: cell-based; details: Homo sapiens, SRB method, 96 hours incubation
Experimental: as §1, §2, §3, §4, §5

SK-OV-3 (ovary) = assay: Cell growth inhibition assay (SRB), SK-OV-3; assay type: cell-based; details: Homo sapiens, SRB method, 96 hours incubation
Experimental: as §1, §2, §3, §4, §5

UMRC2 (kidney) = assay: Cell growth inhibition assay (SRB), UMRC2; assay type: cell-based, human; details: Homo sapiens, SRB method, 96 hours incubation
Experimental: as §1, §2, §3, §4, §5

HepG2 (liver) = assay: Cell growth inhibition assay (SRB), HepG2; assay type: cell-based; details: Homo sapiens; SRB method, 96 hours incubation, HepG2 (liver); read-out: IC50, HepG2
Experimental: as §1, §2, §3, §4, §5

PC3 (prostate) = assay: Cell growth inhibition assay (SRB), PC3; assay type: cell-based; details: Homo sapiens; SRB method, 96 hours incubation, PC3 (prostate); read-out: IC50, PC3
Experimental: as §1, §2, §3, §4, §5

MKN-45 (stomach) = assay: Cell growth inhibition assay (SRB), MKN-45; assay type: cell-based; details: Homo sapiens; SRB method, 96 hours incubation, MKN-45 (stomach); read-out: IC50, MKN-45
Experimental: as §1, §2, §3, §4, §5

Caki-1 (kidney) = assay: Cell growth inhibition assay (SRB), Caki-1; assay type: cell-based; details: Homo sapiens; SRB method, 96 hours incubation, Caki-1 (kidney); read-out: IC50, Caki-1
Experimental: as §1, §2, §3, §4, §5

OVCAR-3 (ovary) = assay: Cell growth inhibition assay (SRB), OVCAR-3; assay type: cell-based; details: Homo sapiens; SRB method, 96 hours incubation, OVCAR-3 (ovary); read-out: IC50, OVCAR-3
Experimental: as §1, §2, §3, §4, §5

HCT116 (colon) = assay: Cell growth inhibition assay (SRB), HCT116; assay type: cell-based; details: Homo sapiens, HCT-116; SRB method, 96 hours incubation, HCT116 (colon); read-out: IC50, HCT116
Experimental: as §1, §2, §3, §4, §5

[3] = tested on: MCF-7 (breast, hormone-dependent); assay: Cell growth inhibition assay (SRB), MCF-7; assay type: cell-based; details: Homo sapiens, MCF7; SRB method, 96 hours incubation, MCF-7 (breast, hormone-dependent); read-out: IC50, MCF-7
Experimental: as §1, §2, §3, §4, §5

[4] = HT-29 (colon), read-out: IC50, HT-29
[5] = PANC-1 (pancreas), read-out: IC50, PANC-1
[6] = MDA-MB-231 (breast), read-out: IC50, MDA-MB-231
[7] = HEK293 (human embryonic kidney), read-out: IC50, HEK293
[8] = A549 (lung), read-out: IC50, A549
[9] = SK-OV-3 (ovary), read-out: IC50, SK-OV-3
[10] = UMRC2 (kidney), read-out: IC50, UMRC2

Compound: COc1cccc(N2CCN(C(=O)Nc3nc4cc(C)ccc4nc3OC)CC2)c1 [Compound 45, 1-[(2-Methoxy-6-methylquinoxalin-3-yl)aminocarbonyl]-4-(3-methoxyphenyl)piperazine]
- IC50 ([1]; read-out: Inhibition of cell growth (IC50, μM) by quinoxaline-piperazine compounds against human cancer cell lines: Huvec): 0.5 µM
- IC50 (HT-29 (colon); HT-29, HT29, read-out: Inhibition of cell growth (IC50, μM) by quinoxaline-piperazine compounds against human cancer cell lines: HT29): 0.05 µM
- IC50 (PANC-1 (pancreas); PANC-1, read-out: Inhibition of cell growth (IC50, μM) by quinoxaline-piperazine compounds against human cancer cell lines: PANC-1): 1.31 µM
- IC50 (MDA-MB-231 (breast); MDA-MB-231, read-out: Inhibition of cell growth (IC50, μM) by quinoxaline-piperazine compounds against human cancer cell lines: MDA-MB-231): 0.27 µM
- IC50 ([2]; Homo sapiens, Hek293, read-out: Inhibition of cell growth (IC50, μM) by quinoxaline-piperazine compounds against human cancer cell lines: Hek293): 0.5 µM
- IC50 (A549 (lung); A549, read-out: Inhibition of cell growth (IC50, μM) by quinoxaline-piperazine compounds against human cancer cell lines: A549): 0.25 µM
- IC50 (SK-OV-3 (ovary); SK-OV-3, read-out: Inhibition of cell growth (IC50, μM) by quinoxaline-piperazine compounds against human cancer cell lines: SK-OV-3): 1 µM
- IC50 (UMRC2 (kidney); UMRC2, read-out: Inhibition of cell growth (IC50, μM) by quinoxaline-piperazine compounds against human cancer cell lines: UMRC2): 0.45 µM

Compound: COc1nc2cc(F)ccc2nc1NC(=O)N1CCN(c2cc(C)cc(C)c2)CC1 [Compound 94, 1-[(6-Fluoro-3-methoxyquinoxalin-2-yl)aminocarbonyl]-4-(3,5-dimethylphenyl)piperazine]
- IC50 (HepG2 (liver)): 480 nM
- IC50 ([1]; read-out: IC50, Huvec): 0.16 µM
- IC50 (PC3 (prostate)): 700 nM
- IC50 (MKN-45 (stomach)): 250 nM
- IC50 (Caki-1 (kidney)): 330 nM
- IC50 (OVCAR-3 (ovary)): 290 nM
- IC50 (HT-29 (colon); [4]): 0.89 µM
- IC50 (PANC-1 (pancreas); [5]): 0.56 µM
- IC50 (MDA-MB-231 (breast); [6]): 0.41 µM
- IC50 (HCT116 (colon)): 400 nM
- IC50 [2, 7]: 0.57 µM
- IC50 (A549 (lung); [8]): 0.42 µM
- IC50 [3]: 360 nM
- IC50 (SK-OV-3 (ovary); [9]): 0.5 µM
- IC50 (UMRC2 (kidney); [10]): 0.32 µM

Compound: COc1nc2cc(Cl)ccc2nc1NC(=O)N1CCN(c2cc(C)cc(C)c2)CC1 [Compound 115, 1-[(6-Chloro-3-methoxyquinoxalin-2-yl)aminocarbonyl]-4-(3,5-dimethylphenyl)piperazine]
- IC50 (HepG2 (liver)): 410 nM
- IC50 ([1]; read-out: IC50, Huvec): 0.52 µM
- IC50 (PC3 (prostate)): 620 nM
- IC50 (MKN-45 (stomach)): 430 nM
- IC50 (Caki-1 (kidney)): 310 nM
- IC50 (OVCAR-3 (ovary)): 310 nM
- IC50 (HT-29 (colon); [4]): 0.46 µM
- IC50 (PANC-1 (pancreas); [5]): 0.17 µM
- IC50 (MDA-MB-231 (breast); [6]): 0.13 µM
- IC50 (HCT116 (colon)): 450 nM
- IC50 [2, 7]: 0.5 µM
- IC50 (A549 (lung); [8]): 0.59 µM
- IC50 [3]: 450 nM
- IC50 (SK-OV-3 (ovary); [9]): 0.5 µM
- IC50 (UMRC2 (kidney); [10]): 0.11 µM

Compound: COc1nc2cc(C)ccc2nc1NC(=O)N1CCN(c2cc(C)cc(C)c2)CC1 [Compound 136, 1-[(3-Methoxy-6-methylquinoxalin-2-yl)aminocarbonyl]-4-(3,5-dimethylphenyl)piperazine]
- IC50 (HepG2 (liver)): 190 nM
- IC50 ([1]; read-out: IC50, Huvec): 0.15 µM
- IC50 (PC3 (prostate)): 250 nM
- IC50 (MKN-45 (stomach)): 180 nM
- IC50 (Caki-1 (kidney)): 130 nM
- IC50 (OVCAR-3 (ovary)): 140 nM
- IC50 (HT-29 (colon); [4]): 0.24 µM
- IC50 (PANC-1 (pancreas); [5]): 0.28 µM
- IC50 (MDA-MB-231 (breast); [6]): 0.045 µM
- IC50 (HCT116 (colon)): 200 nM
- IC50 [2, 7]: 0.24 µM
- IC50 (A549 (lung); [8]): 0.21 µM
- IC50 [3]: 210 nM
- IC50 (SK-OV-3 (ovary); [9]): 0.1 µM
- IC50 (UMRC2 (kidney); [10]): 0.057 µM

Compound: COc1ccc2nc(NC(=O)N3CCN(c4cc(C)cc(C)c4)CC3)c(OC)nc2c1 [Compound 157, 1-[(3,6-Dimethoxyquinoxalin-2-yl)aminocarbonyl]-4-(3,5-dimethylphenyl)piperazine]
- IC50 (HepG2 (liver)): 560 nM
- IC50 ([1]; read-out: IC50, Huvec): 0.15 µM
- IC50 (PC3 (prostate)): 580 nM
- IC50 (MKN-45 (stomach)): 270 nM
- IC50 (Caki-1 (kidney)): 300 nM
- IC50 (OVCAR-3 (ovary)): 290 nM
- IC50 (HT-29 (colon); [4]): 0.78 µM
- IC50 (PANC-1 (pancreas); [5]): 0.47 µM
- IC50 (MDA-MB-231 (breast); [6]): 0.41 µM
- IC50 (HCT116 (colon)): 380 nM
- IC50 [2, 7]: 0.53 µM
- IC50 (A549 (lung); [8]): 2.5 µM
- IC50 [3]: 210 nM
- IC50 (SK-OV-3 (ovary); [9]): 0.5 µM
- IC50 (UMRC2 (kidney); [10]): 0.27 µM
